These results are taken from US20230405035A1, “MONTBRETIN A FUNCTIONAL FOOD” (THE UNIVERSITY OF BRITISH COLUMBIA, priority 2020, published 2023).

Data set [1] is described as follows: HPLC analysis of MbA bread extracts (integrity of MbA after baking). Format: physicochemical. The following applies: MbA baked in bread to an internal temperature of 100° C., methanol extract; control = MbA added after baking (MbA*). The protocol: MbA was added as a primary ingredient to a standard bread recipe and to evaluate the integrity of the additive after baking. To this end MbA was added (45 mg) as part of the raw dough (225 g) and separated into 25 g half-servings after kneading. After baking to an internal temperature of 100° C., the samples were extracted with methanol and subject to HPLC and kinetic analysis. In parallel, control samples containing no MbA (MbA−) or MbA added after baking (MbA*) were assessed in an analogous manner.
Two approximately 225 g batches of bread were prepared, one containing MbA the other with no MbA. For each batch: • 1. 5 mL of yeast was activated by mixing with 62.5 mL 43.3° C. water and ¼ tsp sucrose then incubated on the bench top for 10 min. • 2. ½ cup of all-purpose flour was mixed with ½ cup whole-wheat flour and ⅛ tsp NaCl (and 45 mg* MbA for the MbA+ batch only). *The target MbA concentration was 10 mg per serving of bread:
[formula] • 3. The flour mixture was combined with the activated yeast mixture and 25 mL room temperature water then stirred until a dough formed. • 4. Dough kneaded for 10 min by hand. • 5. Dough was rested at room temperature for 30 min. • 6. […]
100 μL of each bread extract was injected on HPLC as described above. MbA was quantified by integrating the MbA on the HPLC trace to standard curve of known MbA amounts.

For data set [2], the target named is T1, human pancreatic α-amylase (HPA) (Homo sapiens, UniProt P04746).
T1 sequence (P04746 16-511): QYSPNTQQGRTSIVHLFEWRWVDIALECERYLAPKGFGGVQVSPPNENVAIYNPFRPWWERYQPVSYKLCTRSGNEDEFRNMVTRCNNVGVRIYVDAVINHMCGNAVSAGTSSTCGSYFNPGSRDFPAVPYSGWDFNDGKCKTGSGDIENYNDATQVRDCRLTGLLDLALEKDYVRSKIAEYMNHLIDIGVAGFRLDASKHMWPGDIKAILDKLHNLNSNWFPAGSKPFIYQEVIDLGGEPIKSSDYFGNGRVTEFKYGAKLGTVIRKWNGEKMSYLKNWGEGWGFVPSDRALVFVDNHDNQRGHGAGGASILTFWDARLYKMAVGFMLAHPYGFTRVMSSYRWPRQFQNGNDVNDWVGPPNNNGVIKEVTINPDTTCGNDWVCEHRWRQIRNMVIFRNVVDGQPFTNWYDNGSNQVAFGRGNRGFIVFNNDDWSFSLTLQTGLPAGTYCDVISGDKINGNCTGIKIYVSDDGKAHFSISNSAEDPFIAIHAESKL
Kind of data set: HPA inhibition IC50 assay with colorimetric substrate CNPG3. Format: biochemical. The following applies: following standard bread production processes. The protocol:
MbA inhibits the activity of human pancreatic α-amylase (HPA). To determine whether and to what extent the prepared bread extract inhibits HPA, enzymatic assays were performed with the colorimetric substrate 2-chloro-4-nitrophenyl-[…] (CNPG3).
HPA inhibition activity of the bread prepared as described above was determined by monitoring CNPG3 concentration. 20 μL of 200, 100, 40, 20 or 8 mM CNPG3 were combined with 170 μL buffer (50 mM phosphate pH 7.0, 100 mM NaCl) in quartz cuvettes and placed in a CARYXXX UV/Vis spectrophotometer. • 2. To each of the five cuvettes, 10 μL of HPA solution was rapidly added to the 190 μL buffered substrate solution. • 3. Spectrophotometer was set to continuously measure absorbance at 400 nm over 5 min. • 4. […] Rates were calculated from t=1 to t=3 (Δ400 nm/min), plotted against CNPG3 concentration and fit with the Michaelis-Menten equation.
20 μL of 40 mM CNPG was combined with 150 μL buffer and 20 μL MbA− or MbA+ bread extract (either ×100 or ×1000 diluted with water). […] Spectrophotometer was set to continuously measure absorbance at 400 nm over 5 min. • 4. Rates were calculated from t=1 to t=3 (Δ400 nm/min), plotted on a bar graph.
Three sets of bread extractions were done to measure IC50: • A. Bread baked with MbA (MbA+) • B. Bread baked without MbA (MbA−) • C. […] IC50s were measured using the HPA/CNPG3 assay described above: • 1. […]

For the compound `CC1O[C@@H](O[C@@H]2CO[C@@H](Oc3c(O)cc(-c4oc5cc(O)cc(O)c5c(=O)c4O[C@@H]4OC(C)[C@H](O)[C@H](O)C4O[C@@H]4OC(COC(=O)/C=C/c5ccc(O)c(O)c5)[C@@H](O)[C@@H](O)C4O[C@@H]4OC(CO)[C@@H](O)[C@@H](O)C4O)cc3O)C(O)[C@@H]2O)C(O)[C@@H](O)[C@H]1O` (some centres unmarked) [MbA, Montbretin A], in data set [1], the “MbA intact relative to control (HPLC traces)” value came out at 84%. Moreover, the “activity retained relative to the unbaked controls (MbA*)” value in data set [2] is “greater than 80%”.
